# Data taken from patent US20220249413A1, “SWELL 1 MODULATORS FOR TREATMENT OF NON-ALCOHOLIC FATTY LIVER DISEASE, IMMUNE DEFICIENCIES, MALE INFERTILITY AND VASCULAR DISEASES” (priority 2019, published 2022).
# What was measured:
# SWELL1 = SWELL1 expression in adipose tissue of treated T2D mice (Western blot); type: in vivo, mouse; details: 5 mg/kg i.p.
# Description: Patients Human islets and adipocytes were obtained and cultured as described previously (Zhang et al., Nat Cell Biol, 19, 504-517, 2017; Kang et al., Nature Communications, 9, 367, 2018). The Patients involved in the study were anonymous and information such as gender, age, HbA1c, glucose levels and BMI only were available to the research team. The study was approved and carried out as per the guidelines of the University of Iowa Institutional Review Board (IRB). Animals All experimental procedures involving mice were approved by the Institutional Animal Care and Use Committee of the University of Iowa and Washington University at St. Louis. All C57BL/6 mice involved in study were purchased from Charles River Labs. Both KK.Cg-Ay/J (KKA^y) and KK.Cg-Aa/J (KKA^a) mice involved in study were gender and age-matched mice obtained from Jackson Labs (Stock No: 002468) and bred up for experiments. The mice were fed ad libitum with either regular chow (RC) or high-fat diet (Research Diets, Inc., 60 kcal % fat) with free access to water and housed in a light-, temperature- and humidity-controlled room. For high-fat diet (HFD) studies, only male mice were used and were started on HFD regimen at the age of 6-9 weeks. For all experiments involving KKA^y and KKA^a mice, both males and females were used at approximately 50/50 ratio. […] Based on GFP fluorescence, viral transduction efficiency was ˜90%. […]
# [1] = Glucose-stimulated insulin secretion (plasma insulin and islet perifusion); type: in vivo, mouse; details: 21 weeks HFD mice
# VRAC/ICl,SWELL = biological target: T1, VRAC/ICl,SWELL (Homo sapiens, UniProt Q8IWT6); details: read-out: IC50 as VRAC/ICl,SWELL inhibitor; cited from earlier work
# T1 sequence (Q8IWT6 1-810): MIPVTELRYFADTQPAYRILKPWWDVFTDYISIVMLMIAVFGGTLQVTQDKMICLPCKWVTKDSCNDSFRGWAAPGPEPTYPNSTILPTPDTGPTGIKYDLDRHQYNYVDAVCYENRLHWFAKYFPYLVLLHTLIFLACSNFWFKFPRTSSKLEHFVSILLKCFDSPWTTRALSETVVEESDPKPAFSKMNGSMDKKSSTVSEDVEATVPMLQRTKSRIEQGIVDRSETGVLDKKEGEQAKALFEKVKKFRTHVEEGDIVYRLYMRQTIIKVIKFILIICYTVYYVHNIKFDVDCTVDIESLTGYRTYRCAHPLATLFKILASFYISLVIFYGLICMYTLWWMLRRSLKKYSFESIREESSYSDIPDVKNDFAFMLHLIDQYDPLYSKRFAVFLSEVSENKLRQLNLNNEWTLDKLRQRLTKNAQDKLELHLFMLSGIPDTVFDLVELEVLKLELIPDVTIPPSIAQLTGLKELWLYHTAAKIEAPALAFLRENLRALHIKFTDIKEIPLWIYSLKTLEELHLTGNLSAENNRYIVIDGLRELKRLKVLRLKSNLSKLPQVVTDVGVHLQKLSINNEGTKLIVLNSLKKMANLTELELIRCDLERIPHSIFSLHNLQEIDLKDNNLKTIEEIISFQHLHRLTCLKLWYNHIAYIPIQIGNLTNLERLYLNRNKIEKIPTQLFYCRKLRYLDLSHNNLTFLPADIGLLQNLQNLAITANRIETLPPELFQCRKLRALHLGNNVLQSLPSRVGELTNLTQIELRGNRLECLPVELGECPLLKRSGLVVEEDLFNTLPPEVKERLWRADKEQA
structure (smiles),measurement,setting,value
"CCCCC1(C2CCCC2)Cc2cc(OCCCC(=O)O)c(Cl)c(Cl)c2C1=O (stereo not shown) [Smod1, 4-[(2-Butyl-6,7-dichloro-2-cyclopentyl-2,3-dihydro-1-oxo-1H-inden-5-yl)oxy]butanoic acid]",augmentation of SWELL1 expression in adipose tissue,SWELL1; HFD-fed T2D mice,2.3 fold
same,adipose SWELL1 expression,SWELL1; KKA^y mice,levels comparable to both non-T2D C57/B6 mice and to the parental KKA^a parental strain
same,"glucose-stimulated insulin secretion (GSIS), serum insulin and perifusion of isolated islets",[1],significantly improved
same,IC50,"VRAC/ICl,SWELL",2 to 4 µM
